What was measured:
Type in all cases: cell-based
[1] = system: neurons in the pre-Bötzinger complex; assay: Electrophysiologic recording of neurons in the pre-Bötzinger complex in rat medullary slices; conditions: whole cell patch clamp, versus vehicle (0.1% DMSO) control, FIG. 1
Source text: (§1) Neonatal rats (postnatal day 1-10) were decapitated and the neuraxis was isolated in a chamber filled with oxygenated artificial cerebrospinal fluid solution (ACSF, in mM: NaCl 125, KCl 2.5, MgCl2 1, CaCl2 2, NaHCO3 25, NaH2PO4 1.25, glucose 25, pH 7.4). The cerebellum was removed, and the brainstem was mounted in the vibratome (VT 1000S; Leica, Milan, Italy) chamber filled with oxygenated gluconate cutting solution (in mM: Kgluconate 130, KCl 15, EGTA 0.2, HEPES 20, glucose 25, kynurenic acid 2, pH 7.4). Transverse medullary slices containing the pre-Bötzinger complex and hypoglossal nucleus were cut (400-600 μm thick). The slices were transferred at room temperature for 1 min in an oxygenated mannitol cutting solution (in mM: D-mannitol 225, glucose 25, KCl 2.5, NaH2PO4 1.25, NaHCO3 26, CaCl2 0.8, MgCl2 8, kynurenic acid 2, pH 7.4). Slices were then transferred in ACSF solution at 30° C. for 30 min and at room temperature for 30 min. At least 30 min prior to the start of recording, each slice was transferred in the recording solution in which the concentration of K+ was raised to 9 mM and that of Mg2+ was decreased to 0.5 mM to ensure the production of long-term and stable rhythm. […] Signals were acquired using Clampex 10.6 software (Axon, Molecular Devices, CA, USA) at a sampling rate of 10-20 kHz and filtered at 2-10 kHz using an 8-pole Bessel filter built within the software and analyzed using Clampfit 10.6 software (pClamp 10.6; Axon, Molecular Devices). […] Bursts were then automatically detected, and burst frequency was measured.
(§2) To evaluate the effects of vehicle (0.1% DMSO) on neuronal activities, after 5 min of stabilization, the neuronal activities under basal condition was recorded for 2-12 min, followed by recording in the presence of vehicle (0.1% DMSO) for 30 min. […]

phrenic motoneurons = assay: Electrophysiologic recording of phrenic motoneurons in rat isolated brainstem-spinal cord preparations; conditions: C3-5 ventral root, versus vehicle control, FIG. 2
Method: Neonatal (postnatal day 1-4) rats were decapitated, and the brainstem-spinal cord was dissected in a bath containing ACSF. The cerebellum and pons were ablated. At least 30 min prior to the start of recording, the tissue was transferred in the recording solution in which the concentration of K+ was raised to 5 mM and that of Mg2+ was decreased to 0.5 mM to ensure production of long-term and stable rhythm (modified ACSF, in mM: NaCl 125, MgCl2 0.5, KCl 5, CaCl2 1, NaHCO3 25, NaH2PO4 1.25, glucose 30, pH 7.4). The tissues were glued on coverslips and transferred to a recording chamber and continuously perfused at 27±2° C. with mACSF at a flow rate of 2.3±0.2 mL/min. Activity of phrenic motoneurons was measured in electrophysiological recordings from C3-5 ventral root, outputs of phrenic motoneurons (J. J. Greer, J. C. Smith, J. L. Feldman, Respiratory and locomotor patterns generated in the fetal rat brain stem-spinal cord in vitro, J Neurophysiol 67 (4) (1992) 996-9; J. C. Smith, J. J. Greer, G. S. Liu, J. L. Feldman, Neural mechanisms generating respiratory pattern in mammalian brain stem-spinal cord in vitro. I. Spatiotemporal patterns of motor and medullary neuron activity, J Neurophysiol 64 (4) (1990) 1149-69), using a glass suction electrode. […] The rectification and integration was used for quantification of the activities of phrenic motoneurons because the spontaneous bursts detected in voltage signals are consisting of multiple positive and negative voltages from baseline (T. Sugita, et al.). […] Bursts were then automatically detected, and burst frequency was measured.
To evaluate the effects of vehicle (0.1% DMSO) on neuronal activities, after 5 min of stabilization, the neuronal activities under basal condition were recorded for 2-20 min, followed by recording with vehicle (0.1% DMSO) for 30-40 min. […] As vehicle (0.1% DMSO) had no significant effects on burst frequency of phrenic neurons, potential of drugs was assessed under vehicle (0.1% DMSO). […]

hypoglossal motoneurons = assay: Electrophysiologic recording of hypoglossal motoneurons in rat medullary slices; conditions: whole cell patch clamp, versus vehicle control, FIG. 3
Source text: as §1, §2

CC(C)(O)C(=O)N1CC(F)(F)[C@H](NS(C)(=O)=O)[C@@H]1Cc1cccc(-c2cc(F)cc(F)c2)c1F [Compound C, N-{(2S,3R)-4,4-difluoro-1-(2-hydroxy-2-methylpropanoyl)-2-[(2,3′,5′-trifluoro[1,1′-biphenyl]-3-yl)methyl]pyrrolidin-3-yl}methanesulfonamide]
increased burst frequency: burst frequency in neurons in the pre-Bötzinger complex [1] | burst frequency of phrenic motoneurons (phrenic motoneurons) | burst frequency of hypoglossal motoneurons (hypoglossal motoneurons)

COC(=O)N1CCC[C@H](NS(C)(=O)=O)[C@@H]1CO[C@H]1CC[C@@H](c2ccccc2)CC1 (relative stereo) [Compound A, methyl(2R,3S)-3-((methylsulfonyl)amino)-2-(((cis-4-phenylcyclohexyl)oxy)methyl) piperidine-1-carboxylate]
increased burst frequency: burst frequency in neurons in the pre-Bötzinger complex [1] | burst frequency of phrenic motoneurons (phrenic motoneurons) | burst frequency of hypoglossal motoneurons (hypoglossal motoneurons)
